Measurements published in ChEMBL document CHEMBL1151014, “Tetrazole-substituted ureas as inhibitors of acyl-CoA:cholesterol O-acyltransferase (ACAT). A novel preparation of ureas from weakly nucleophilic amines” (Bioorg Med Chem Lett, 1996).

What was measured:
[1] = tested on: Rattus norvegicus; assay: Total serum cholesterol level was measured in rats after administering single high-fat, high cholesterol meal; type: functional
[2] = target: T1, Sterol O-acyltransferase 1 (Rattus norvegicus, UniProt O70536); assay: Liver ACAT inhibitory activity was determined in vitro using [1-14C]oleolyl-CoA and microsomes isolated from the livers of cholesterol fed rats; set-up: species or system Microsome
T1 sequence (O70536 whole entry): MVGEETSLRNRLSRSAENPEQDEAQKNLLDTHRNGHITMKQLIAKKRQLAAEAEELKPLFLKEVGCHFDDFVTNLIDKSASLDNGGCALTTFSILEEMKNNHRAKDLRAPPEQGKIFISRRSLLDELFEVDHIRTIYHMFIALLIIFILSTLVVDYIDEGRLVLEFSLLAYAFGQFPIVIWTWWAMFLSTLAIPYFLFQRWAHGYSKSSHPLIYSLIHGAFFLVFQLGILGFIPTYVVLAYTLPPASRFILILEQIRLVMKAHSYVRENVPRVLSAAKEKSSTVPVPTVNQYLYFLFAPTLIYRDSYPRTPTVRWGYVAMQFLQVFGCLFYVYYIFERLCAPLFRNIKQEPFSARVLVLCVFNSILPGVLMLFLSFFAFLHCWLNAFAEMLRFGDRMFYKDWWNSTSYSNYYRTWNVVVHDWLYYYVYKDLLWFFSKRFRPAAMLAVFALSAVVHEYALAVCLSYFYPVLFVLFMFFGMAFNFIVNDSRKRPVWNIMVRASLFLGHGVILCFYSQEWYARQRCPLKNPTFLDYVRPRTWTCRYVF

[3] = target: T1, Sterol O-acyltransferase 1; assay: Liver Acyl coenzyme A:cholesterol acyltransferase inhibitory activity was determined in vitro using [1-14C]oleolyl-CoA and microsomes isolated from the livers of cholesterol fed rats; set-up: species or system Microsome
[4] = tested on: Oryctolagus cuniculus; assay: Compound was tested for systemic bioactivity in plasma, drawn four hours post dose from cholesterol -fed rabbit, with rat liver microsomes (ABIO) at a dose of 22 mg/kg; type: functional; details: 4 h
[5] = target: T2, Sterol O-acyltransferase 1 (Mus musculus, UniProt Q61263); assay: Compound was tested for its ability to penetrate the cell wall and inhibit macrophage ACAT in cell culture using murine IC-21 macrophages (MAI); type: functional
T2 sequence (Q61263 whole entry): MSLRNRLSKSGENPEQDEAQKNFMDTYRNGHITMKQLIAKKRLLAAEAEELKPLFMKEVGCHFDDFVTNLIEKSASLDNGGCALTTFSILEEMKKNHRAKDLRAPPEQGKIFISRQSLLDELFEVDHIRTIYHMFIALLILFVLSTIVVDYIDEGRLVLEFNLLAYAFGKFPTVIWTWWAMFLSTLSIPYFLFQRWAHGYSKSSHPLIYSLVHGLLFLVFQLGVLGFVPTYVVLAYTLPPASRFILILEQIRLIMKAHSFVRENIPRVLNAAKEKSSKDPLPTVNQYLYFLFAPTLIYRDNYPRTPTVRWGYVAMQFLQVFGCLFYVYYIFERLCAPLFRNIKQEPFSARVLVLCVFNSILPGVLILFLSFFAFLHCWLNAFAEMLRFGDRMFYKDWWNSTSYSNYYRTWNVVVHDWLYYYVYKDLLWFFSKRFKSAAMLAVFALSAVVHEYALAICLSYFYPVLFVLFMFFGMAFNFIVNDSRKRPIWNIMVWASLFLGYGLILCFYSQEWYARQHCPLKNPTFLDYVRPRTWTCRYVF

[6] = tested on: Oryctolagus cuniculus; assay: Compound was tested for systemic bioactivity in plasma, drawn four hours post dose from cholesterol -fed rabbit, with rat liver microsomes (ABIO) at a dose of 24 mg/kg; type: functional; details: 4 h
[7] = tested on: Oryctolagus cuniculus; assay: Anti-atherosclerosis activity was determined by measuring the thoracic aortic lesion coverage in an injured cholesterol-fed rabbit (ICFR) model at a dose of 5 mg/kg; type: functional, Aorta
[8] = tested on: Oryctolagus cuniculus; assay: Compound was tested for percent change in plasma triglycerides relative to progression control in an injured cholesterol-fed rabbit (ICFR) model at a dose of 25 mg/kg(p<0.10); type: functional
[9] = tested on: Oryctolagus cuniculus; assay: Compound was tested for percent change in total serum cholesterol relative to progression control in an injured cholesterol-fed rabbit (ICFR) model at a dose of 5 mg/kg; type: functional
[10] = tested on: Oryctolagus cuniculus; assay: Compound was tested for percent change in plasma triglycerides relative to progression control in an injured cholesterol-fed rabbit (ICFR) model at a dose of 5 mg/kg; type: functional
[11] = tested on: Oryctolagus cuniculus; assay: Anti-atherosclerosis activity was determined by measuring the thoracic aortic lesion coverage in an injured cholesterol-fed rabbit (ICFR) model at a dose of 25 mg/kg; type: functional, Aorta
[12] = target: T2, Sterol O-acyltransferase 1; assay: Compound was tested for its ability to penetrate the cell wall and inhibit macrophage ACAT in cell culture using murine IC-21 macrophages (MAI) at 0.1 uM; not active; type: functional
[13] = tested on: Oryctolagus cuniculus; assay: Compound was tested for systemic bioactivity in plasma, drawn four hours post dose from cholesterol -fed rabbit, with rat liver microsomes (ABIO) at a dose of 5 mg/kg; type: functional; details: 4 h
[14] = tested on: Oryctolagus cuniculus; assay: Compound was tested for systemic bioactivity in plasma, drawn four hours post dose from cholesterol -fed rabbit, with rat liver microsomes (ABIO) at a dose of 25 mg/kg; type: functional; details: 4 h
[15] = tested on: Oryctolagus cuniculus; assay: Compound was tested for percent change in total serum cholesterol relative to progression control in an injured cholesterol-fed rabbit (ICFR) model at a dose of 25 mg/kg; type: functional
[16] = tested on: Oryctolagus cuniculus; assay: Compound was tested for percent change in plasma triglycerides relative to progression control in an injured cholesterol-fed rabbit (ICFR) model at a dose of 25 mg/kg; type: functional
[17] = tested on: Oryctolagus cuniculus; assay: Anti-atherosclerosis activity was determined by measuring the thoracic aortic lesion coverage in an injured cholesterol-fed rabbit (ICFR) at a dose of 25 mg/kg; type: functional, Aorta

`CCCCCn1nnc(N(C(=O)Nc2c(OC)cc(OC)cc2OC)c2ccccc2)n1` was tested, and the “Delta TC” value [1] was -43% and the IC50 [2] was 450 nM.
`COc1cc(OC)c(NC(=O)N(c2ccccc2)c2nnn(CCCCCCCCCC(C)C)n2)c(OC)c1` showed an IC50 [3] of 40 nM.
In the case of `CCCCCCCCCCCCn1nnc(N(CCCCCCC)C(=O)Nc2c(OC)cc(OC)cc2OC)n1`, the “Delta TC” value [1] is reported as -20% and the IC50 [3] is reported as 290 nM.
`CC(C)c1cccc(C(C)C)c1NC(=O)N(c1ccccc1)c1nnn(CCCCCCCCOC2CCCCO2)n1` (stereo not drawn) was tested, and the “Delta TC” value [1] was 42% and the IC50 [3] was 16 nM.
With `COc1cc(OC)c(NC(=O)N(c2ccccc2)c2nnn(CCCCCCCCOC3CCCCO3)n2)c(OC)c1` (stereo not drawn) the “Delta TC” value [1] was -50% and the IC50 [3] was 41 nM.
With `CCCCCCCCCCCCCCn1nnc(N(C(=O)Nc2c(OC)cc(OC)cc2OC)c2ccccc2)n1` the “Delta TC” value [1] was -22% and the IC50 [3] was 71 nM.
In the case of `CCCCCCCCCCCCn1nnc(N(Cc2ccccc2)C(=O)Nc2c(OC)cc(OC)cc2OC)n1`, the IC50 [3] is reported as 35 nM.
In the case of `CCCCCCCCCCCCn1nnc(N(C(=O)Nc2c(OC)cc(OC)cc2OC)c2ccccc2)n1`, the inhibition in vivo at 22 mg/kg [4] is reported as 58%, the “Delta TC” value [1] is reported as 74% and the IC50 [2] is reported as 61 nM. It also gave an IC50 [5] of 890 nM.
With `CCCCCCCCCCCCn1nnc(N(C(=O)Nc2c(C(C)C)cccc2C(C)C)C2CCCCC2)n1` the inhibition in vivo at 24 mg/kg [6] was 77%, the “Delta TC” value [1] was 10% and the IC50 [3] was 31 nM. For the same molecule, the IC50 [5] was 3100 nM.
`CCCCCCCCCCCCn1nnc(N(C(=O)Nc2c(OC)cc(OC)cc2OC)C2CCCCC2)n1` was tested, and the Lesion coverage [7] was 49%, the “Delta TG” value [8] was 68% and the “Delta TC” value [9] was 22%. The “Delta TC” value [1] was 67%, the “Delta TG” value [10] was 4% and the IC50 [2] was 57 nM. For the same molecule, the Lesion coverage [11] was 44%, the IC50 [12] was “Not Active” and the inhibition in vivo at 5 mg/kg [13] was 0%. For the same molecule, the inhibition in vivo at 25 mg/kg [14] was 58% and the “Delta TC” value [15] was 21%.
In the case of `CCCCCCCCCCCCn1nnc(N(C(=O)Nc2c(C(C)C)cccc2C(C)C)c2ccccc2)n1`, the inhibition in vivo at 22 mg/kg [4] is reported as 79%, the “Delta TC” value [1] is reported as 52% and the IC50 [5] is reported as 240 nM.
`CCCCCCCCCCC(C)(C)C(=O)Nc1c(OC)cc(OC)cc1OC` [CL-976] was tested, and the “Delta TG” value [16] was -7%, the Lesion coverage [17] was 39% and the inhibition in vivo at 25 mg/kg [14] was 73%. For the same molecule, the “Delta TC” value [15] was -24%.
